Data as given in paper PMC8026324, “In Vitro Antiplasmodial, Heme Polymerization, and Cytotoxicity of Hydroxyxanthone Derivatives” (Journal of Tropical Medicine, 2021).

How the values were obtained:
[1] = tested on: Plasmodium falciparum FCR-3 (chloroquine-resistant strain); assay: In vitro antiplasmodial activity assay, microscopic method, strain FCR-3; assay type: cell-based; conditions: for IC50: 72 hours incubation, microscopic method, read-out: IC50 on P. falciparum FCR-3; for antiplasmodial activity category on P. falciparum FCR-3: category by IC50
Procedure: (§1) The test of antiplasmodial activity began with the culture of P. falciparum 3D-7 and FCR-3 using the modified Trager and Jensen method. The plasmodium was cultured in human O red blood cells diluted to 3% haematocrit in RPMI 1640 medium complemented with 10% human O serum. The medium was made by adding 10.43 g of powder RPMI 1640, 6 g HEPES, 2 g NaHCO3, 25 mg gentamycin, and sterile distilled water up to 1 L. The medium pH was adjusted so that it reached ±7.2. It was sterilized using a 0.22 μm filter and stored at 4°C. The complete plasmodium culture medium was made by adding human serum with a concentration of 10% in the medium. The plasmodium culture was incubated in candle jar in an incubator with a temperature of 37°C and was observed every 24 hours.
(§2) The plasmodium was synchronized to obtain the ring stage by adding 5% of D-sorbitol. The plasmodium was transferred from culture flask to a conical tube, and then it was centrifuged with a speed of 1000 rpm for 10 minutes. After the supernatant was disposed, the sterile 5% sorbitol was added and incubated for 10 minutes at a temperature of 37°C. The plasmodium suspension was centrifuged again; the supernatant was disposed and the plasmodium was washed by adding culture medium. Then, the plasmodium suspension was centrifuged again, and the supernatant was discarded, resulting in a plasmodium in ring stage only. The parasitemia was calculated from a thin blood preparation. The test used 1% parasitemia at 2% haematocrit in RPMI medium which complemented with 10% human O serum.
(§3) Each testing compound was dissolved in RPMI medium. The testing compound in various concentrations with volume of 100 μL was incorporated into the 96-well microplate, and then 100 μL of Plasmodium suspension was added. Each series of concentrations was replicated three times. The microplate was incubated at a temperature of 37°C for 72 hours. At the end of the incubation, a thin blood smear was made using 10% Giemsa stain and observed under a light microscope at 1000x magnification. The percentage of parasitemia (counting a minimum of 1,000 erythrocytes) was calculated from the preparation of thin blood and then used to calculate the percentage of plasmodium growth inhibition. […] Antiplasmodial activity is expressed as IC50, which is the concentration of a compound that is required for 50% inhibition of plasmodium growth. The IC50 value was calculated by probit analysis using SPSS software (IBM Corp., Chicago). The lower the IC50 value obtained, the greater the antiplasmodial activity.

WIDR = tested on: WIDR; design: method as in earlier work; conditions: cited from earlier work
[2] = tested on: Plasmodium falciparum 3D-7 (chloroquine-sensitive strain); assay: In vitro antiplasmodial activity assay, microscopic method, strain 3D-7; assay type: cell-based; conditions: for IC50: 72 hours incubation, microscopic method, read-out: IC50 on P. falciparum 3D-7; for antiplasmodial activity category on P. falciparum 3D-7: category by IC50
Procedure: as §1, §2, §3

MCF-7 = tested on: MCF-7; design: method as in earlier work; conditions: cited from earlier work
Vero cells = assay: In vitro cytotoxicity test, MTT assay on Vero cell line; assay type: cell-based; conditions: for IC50: MTT assay; for Selectivity index 3D-7: ratio IC50 on Vero cell/IC50 on P. falciparum 3D-7; for Selectivity index FCR-3: ratio IC50 on Vero cell/IC50 on P. falciparum FCR-3
Procedure: The in vitro cytotoxicity test was conducted using the 3-(4,5-dimethylthiazol-2-yl)2,5-diphenyltetrazolium bromide (MTT) assay method on Vero cell line culture using the Anderson et al.'s modified method.
The cell was removed from the cryo medium. Then, the cell was thawed at 37°C. The liquid cell was subsequently transferred to the tube and a culture medium was added to a volume of 10 mL. Then, the suspension was centrifuged for 15 minutes so that it would form cell pellets. The supernatant was removed and 1 mL of culture medium was added to the cell pellets. Finally, the suspension was transferred to the Petri dish and incubated in the incubator with 5% of CO2 at 37°C.
The medium of Vero cell culture was removed, and then the cell was washed using a PBS solution with a volume of PBS ± 1/2 of the initial medium volume. This step was done twice and 1 mL of trypsin 0.25% was added. Subsequently, the cell was incubated in the CO2 incubator at 37°C for 3 minutes. Then, the cell was resuspended using 2 mL of culture medium and PBS solution was added up to 10 mL. The suspension was centrifuged for 15 minutes so that it formed pellets. Pellets were added with 1 mL of culture medium and resuspended. Take 10 μL of the cell suspension and density of cells was calculated.
Then, the cell was added with culture medium to 10 mL. A total of 100 μL of such suspensions was transferred into each well of the 96-well microplate, but three of the wells were emptied as medium controls. Subsequently, the microplate was incubated in a 5% CO2 incubator at 37°C.
Each hydroxyxanthone derivative compound was dissolved in DMSO, and a variety of concentrations were prepared in the medium. Each concentration of the testing compound was added into the 96-well microplate triplicately. Cell control and medium control were not given a testing compound solution. The medium control remained blank, while the cell control contained culture medium only. […] Then, the cell was incubated in a 5% CO2 incubator at 37°C for 24 hours.
After the cell was incubated for 24 hours, the medium was discarded and washed with PBS. Then, each well was added with 100 μL of 5 mg/mL of MTT solution. The 96-well microplate was incubated again in the incubator of CO2 at 37°C for 4 hours. Then, 100 μL of 10% of SDS in 0.01 MHCl was added. The cells were placed in a dark room at room temperature for 24 hours.
The absorbance was measured using the enzyme-linked immunosorbent assay (ELISA) reader at 595 nm wavelength. The cytotoxicity test on the Vero cells was done by calculating the percentage of Vero cell inhibition of the absorption value of the test compound, cell control, and medium control. The cytotoxic effect was expressed as IC50. The IC50 value was obtained from the probit analysis by using SPSS software (IBM Corp., Chicago). The degree of selectivity was expressed as a selectivity index. The selectivity index was obtained from the ratio between the IC50 cytotoxic effect on Vero cells and IC50 antiplasmodial activity on Plasmodium. A compound is said to be safe if the value of the selectivity index is >10 [20].

Hela = tested on: Hela; design: method as in earlier work; conditions: cited from earlier work
[3] = Chlorocebus sabaeus, Vero, 24 h, 24 hours incubation

Structure (SMILES): O=c1c2ccc(O)cc2oc2cccc(O)c12 [HX2, 1,6-dihydroxyxanthone]
- inhibition at 54.78 µM ([1]; Plasmodium falciparum, FCR3, 54.78 μM, read-out: Growth inhibition of P. falciparum Strain FCR-3): 47.2 ± 0.687%
- inhibition at 109.55 µM ([1]; Plasmodium falciparum, FCR3, 109.55 μM, read-out: Growth inhibition of P. falciparum Strain FCR-3): 50.2 ± 2.63%
- inhibition at 219.11 µM ([1]; Plasmodium falciparum, FCR3, 219.11 μM, read-out: Growth inhibition of P. falciparum Strain FCR-3): 67.1 ± 2.76%
- inhibition at 438.21 µM ([1]; Plasmodium falciparum, FCR3, 438.21 μM, read-out: Growth inhibition of P. falciparum Strain FCR-3): 74.2 ± 1.32%
- inhibition at 876.42 µM ([1]; Plasmodium falciparum, FCR3, 876.42 μM, read-out: Growth inhibition of P. falciparum Strain FCR-3): 87.6 ± 2.24%
- IC50 ([1]; Plasmodium falciparum, FCR3): 81.8 ± 5.78 µM
- antiplasmodial activity category on P. falciparum FCR-3 [1]: moderate (moderate (IC50 20–100 μM))
- cytotoxicity on WIDR (in words) (WIDR): weak
- inhibition at 54.78 µM ([2]; Plasmodium falciparum, 54.78 μM, read-out: Growth inhibition of P. falciparum Strain 3D-7): 49.2 ± 1.61%
- inhibition at 109.55 µM ([2]; Plasmodium falciparum, 109.55 μM, read-out: Growth inhibition of P. falciparum Strain 3D-7): 54.8 ± 2.43%
- inhibition at 219.11 µM ([2]; Plasmodium falciparum, 219.11 μM, read-out: Growth inhibition of P. falciparum Strain 3D-7): 67.16 ± 0.601%
- inhibition at 438.21 µM ([2]; Plasmodium falciparum, 438.21 μM, read-out: Growth inhibition of P. falciparum Strain 3D-7): 73.62 ± 0.713%
- inhibition at 876.42 µM ([2]; Plasmodium falciparum, 876.42 μM, read-out: Growth inhibition of P. falciparum Strain 3D-7): 90.56 ± 0.665%
- IC50 ([2]; Plasmodium falciparum): 71.78 ± 0.31 µM
- antiplasmodial activity category on P. falciparum 3D-7 [2]: moderate (moderate (IC50 20–100 μM))
- cytotoxicity on MCF-7 (in words) (MCF-7): weak
- IC50 (Vero cells; 24 hours incubation): 308 µM
- IC50 (Vero cells; [3]): 390 µM
- inhibition at 54.13 µM (Vero cells; Chlorocebus sabaeus, Vero, 24 h, 54.13 μM, read-out: Vero cell growth inhibition after 24 hours incubation): 15.6%
- inhibition at 108.26 µM (Vero cells; Chlorocebus sabaeus, Vero, 24 h, 108.26 μM, read-out: Vero cell growth inhibition after 24 hours incubation): 31.8%
- inhibition at 216.86 µM (Vero cells; Chlorocebus sabaeus, Vero, 24 h, 216.86 μM, read-out: Vero cell growth inhibition after 24 hours incubation): 38.9%
- inhibition at 433.73 µM (Vero cells; Chlorocebus sabaeus, Vero, 24 h, 433.73 μM, read-out: Vero cell growth inhibition after 24 hours incubation): 59.8%
- inhibition at 867.45 µM (Vero cells; Chlorocebus sabaeus, Vero, 24 h, 867.45 μM, read-out: Vero cell growth inhibition after 24 hours incubation): 67%
- inhibition at 1734.91 µM (Vero cells; Chlorocebus sabaeus, Vero, 24 h, 1734.91 μM, read-out: Vero cell growth inhibition after 24 hours incubation): 86.1%
- IC50 (Vero cells; Chlorocebus sabaeus, Vero): 88.9 µg/mL
- Selectivity index 3D-7 (Vero cells): 4.30
- Selectivity index FCR-3 (Vero cells): 3.77
- cytotoxicity on Hela (in words) (Hela): weak

Structure (SMILES): O=c1c2ccc(O)c(O)c2oc2cccc(O)c12 [HX3, 1,5,6-trihydroxyxanthone]
- inhibition at 25.59 µM ([1]; Plasmodium falciparum, FCR3, 25.59 μM, read-out: Growth inhibition of P. falciparum Strain FCR-3): 38.3 ± 1.19%
- inhibition at 51.19 µM ([1]; Plasmodium falciparum, FCR3, 51.19 μM, read-out: Growth inhibition of P. falciparum Strain FCR-3): 43.13 ± 0.126%
- inhibition at 102.38 µM ([1]; Plasmodium falciparum, FCR3, 102.38 μM, read-out: Growth inhibition of P. falciparum Strain FCR-3): 51.92 ± 0.466%
- inhibition at 204.75 µM ([1]; Plasmodium falciparum, FCR3, 204.75 μM, read-out: Growth inhibition of P. falciparum Strain FCR-3): 71.9 ± 7.84%
- inhibition at 409.5 µM ([1]; Plasmodium falciparum, FCR3, 409.5 μM, read-out: Growth inhibition of P. falciparum Strain FCR-3): 83 ± 1.4%
- IC50 ([1]; Plasmodium falciparum, FCR3): 64.1 ± 5.08 µM
- antiplasmodial activity category on P. falciparum FCR-3 [1]: moderate (moderate (IC50 20–100 μM))
- cytotoxicity on WIDR (in words) (WIDR): weak
- inhibition at 25.59 µM ([2]; Plasmodium falciparum, 25.59 μM, read-out: Growth inhibition of P. falciparum Strain 3D-7): 47.3 ± 0.611%
- inhibition at 51.19 µM ([2]; Plasmodium falciparum, 51.19 μM, read-out: Growth inhibition of P. falciparum Strain 3D-7): 63.4 ± 0.421%
- inhibition at 102.38 µM ([2]; Plasmodium falciparum, 102.38 μM, read-out: Growth inhibition of P. falciparum Strain 3D-7): 68.89 ± 0.151%
- inhibition at 204.75 µM ([2]; Plasmodium falciparum, 204.75 μM, read-out: Growth inhibition of P. falciparum Strain 3D-7): 80.92 ± 0.679%
- inhibition at 409.5 µM ([2]; Plasmodium falciparum, 409.5 μM, read-out: Growth inhibition of P. falciparum Strain 3D-7): 87.4 ± 1.15%
- IC50 ([2]; Plasmodium falciparum): 27.64 ± 0.19 µM
- antiplasmodial activity category on P. falciparum 3D-7 [2]: moderate (moderate (IC50 20–100 μM))
- cytotoxicity on MCF-7 (in words) (MCF-7): weak
- IC50 (Vero cells; 24 hours incubation): 224 µM
- IC50 (Vero cells; [3]): 230 µM
- inhibition at 63.88 µM (Vero cells; Chlorocebus sabaeus, Vero, 24 h, 63.88 μM, read-out: Vero cell growth inhibition after 24 hours incubation): 20.7%
- inhibition at 127.76 µM (Vero cells; Chlorocebus sabaeus, Vero, 24 h, 127.76 μM, read-out: Vero cell growth inhibition after 24 hours incubation): 39.6%
- inhibition at 255.94 µM (Vero cells; Chlorocebus sabaeus, Vero, 24 h, 255.94 μM, read-out: Vero cell growth inhibition after 24 hours incubation): 55.7%
- inhibition at 511.88 µM (Vero cells; Chlorocebus sabaeus, Vero, 24 h, 511.88 μM, read-out: Vero cell growth inhibition after 24 hours incubation): 68%
- inhibition at 1023.75 µM (Vero cells; Chlorocebus sabaeus, Vero, 24 h, 1023.75 μM, read-out: Vero cell growth inhibition after 24 hours incubation): 79.9%
- inhibition at 2047.5 µM (Vero cells; Chlorocebus sabaeus, Vero, 24 h, 2047.50 μM, read-out: Vero cell growth inhibition after 24 hours incubation): 88.9%
- IC50 (Vero cells; Chlorocebus sabaeus, Vero): 56.2 µg/mL
- Selectivity index 3D-7 (Vero cells): 8.12
- Selectivity index FCR-3 (Vero cells): 3.50
- cytotoxicity on Hela (in words) (Hela): weak
